# Molecular target: T1, ApST4 (A. pisum sugar transporter 4) (Acyrthosiphon pisum, UniProt A0A8R2H6Y5)
# T1 sequence (A0A8R2H6Y5 64-552): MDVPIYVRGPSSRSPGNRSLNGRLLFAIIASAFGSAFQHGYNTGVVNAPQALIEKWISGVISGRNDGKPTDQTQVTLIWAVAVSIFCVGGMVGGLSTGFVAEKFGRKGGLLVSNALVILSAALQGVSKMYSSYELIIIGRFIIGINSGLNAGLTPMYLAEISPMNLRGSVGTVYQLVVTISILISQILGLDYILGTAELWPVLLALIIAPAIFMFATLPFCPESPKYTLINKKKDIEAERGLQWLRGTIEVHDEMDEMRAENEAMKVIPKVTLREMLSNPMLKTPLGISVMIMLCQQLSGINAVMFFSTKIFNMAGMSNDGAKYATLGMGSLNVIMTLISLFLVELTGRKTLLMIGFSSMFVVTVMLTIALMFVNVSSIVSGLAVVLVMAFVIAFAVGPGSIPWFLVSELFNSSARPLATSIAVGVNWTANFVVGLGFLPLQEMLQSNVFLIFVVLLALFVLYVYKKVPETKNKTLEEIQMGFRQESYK
# Test: competition with […]-fructose uptake in whole yeast cells
# Type: cell-based
# Conditions: 50 mM 14C-fructose; 100 mM unlabelled competitor; pH 7.0; 30 °C; 10 min
row,SMILES,% reduction of 14C-fructose uptake at 100 mM
1,OC[C@H]1OC(O)[C@H](O)[C@@H](O)[C@H]1O (some centres unmarked) [galactose],~ 21%
2,OC[C@H]1OC(O)[C@@H](O)[C@@H](O)[C@@H]1O (some centres unmarked) [mannose],> 50%

# — publication PMC4132908, “Genome-wide annotation and functional identification of aphid GLUT-like sugar transporters” (BMC Genomics, 2014)
